Read-outs that look alike come from different tables or passages of the source.
What was measured:
[1] = tested on: soybean plants (variety S20-G7); experiment: Water use (WU) of soybean plants after foliar spray; type: in vivo; details: for Total % WU 0 to 2 DAA: cumulative; for change in vivo at 500 µM / change in vivo at 100 µM: Glycine max, vs negative control; for change in vivo at 500 µM / Total 0 to 2 DAA / change in vivo at 100 µM: foliar spray; for Total 0 to 2 DAA: cumulative WU vs negative control
Procedure: Chemicals were tested for their effect on reducing plant water use (WU) after being applied by foliar sprays onto soybean plants (variety S20-G7)—grown in controlled environment plant growth chambers. All chemicals were applied using an emulsifiable concentrate (EC) formulation that was diluted with water containing additional surfactant (EXTRAVON 1 g/20 L) to the indicated concentrations. Plant WU was assessed by multiple pot weighing processes before and after application of the chemicals at the indicated times (expressed in days after application (DAA)). The WU data before application was used to correct for differences in water use due to non-treatment effects (e.g. due to differences in plant size). The results are expressed compared to negative control treatment (water with EXTRAVON 1 g/20 L).
Application of the chemicals (0 DAA) takes place approximately between 8 to 9:30 a.m. […] The cumulative total WU (0-2 DAA) is calculated by summing the WU data mentioned above.

PYL2-HAB1 = PYL2-HAB1 (Arabidopsis thaliana (Mouse-ear cress), UniProt O80992); experiment: PP2C activity assay, PYL2-HAB1; type: biochemical; details: 100 nM PP2C, 200 nM PYR/PYL protein, 4-nitrophenyl phosphate substrate; read-out: IC50 of inhibition of PYL2-HAB1
PYL2-HAB1, sequence (O80992 whole entry, looked up): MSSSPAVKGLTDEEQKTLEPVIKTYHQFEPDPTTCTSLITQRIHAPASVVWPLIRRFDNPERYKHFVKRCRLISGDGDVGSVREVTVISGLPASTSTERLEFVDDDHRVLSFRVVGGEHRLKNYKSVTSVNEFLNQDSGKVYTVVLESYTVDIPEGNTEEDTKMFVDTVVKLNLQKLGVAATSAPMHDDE
PYL2-HAB1, sequence (Q9CAJ0 whole entry partner, looked up): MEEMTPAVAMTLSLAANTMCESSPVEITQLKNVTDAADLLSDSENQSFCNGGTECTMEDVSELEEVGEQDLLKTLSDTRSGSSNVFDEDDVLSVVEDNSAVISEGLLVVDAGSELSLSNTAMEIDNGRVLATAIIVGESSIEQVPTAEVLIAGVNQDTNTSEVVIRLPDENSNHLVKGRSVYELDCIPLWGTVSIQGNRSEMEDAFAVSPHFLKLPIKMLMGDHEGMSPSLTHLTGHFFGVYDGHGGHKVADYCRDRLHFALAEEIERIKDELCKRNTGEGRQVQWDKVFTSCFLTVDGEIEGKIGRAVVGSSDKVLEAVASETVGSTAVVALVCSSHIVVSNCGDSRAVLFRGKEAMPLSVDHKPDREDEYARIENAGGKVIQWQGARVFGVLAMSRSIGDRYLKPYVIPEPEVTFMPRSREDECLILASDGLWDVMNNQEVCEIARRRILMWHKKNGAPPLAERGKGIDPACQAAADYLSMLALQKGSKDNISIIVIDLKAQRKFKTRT
Text: (§1) The protein HAB1, a type 2 protein phosphatase (PP2C), is inhibited by PYR/PYL proteins in dependence of abscisic acid or other receptor agonists. The potency of a receptor agonists correlates with the level of inhibition of the PP2C, and therefore the IC50 (PYR1-HAB1) can be used to compare the relative activity of different chemical analogues. Since inhibition of PP2C correlates to inhibition of seed-germination and increase in plant water-use efficiency, it serves as a powerful tool to quantify biological potential of a chemical acting as an analogue of abscisic acid.
(§2) HAB1 and PYL proteins were expressed and purified as described in Park et al. ((2009) Science 324(5930):1068-1071), with minor modifications. To obtain GST-HAB1, the HAB1 cDNA was cloned into pGex-2T. Expression was conducted in BL21[DE3]pLysS host cells. Transformed cells were pre-cultured overnight, transferred to LB medium and cultured at 30° C. to culture A600 of ˜0.5.
(§3) The culture was then cooled on ice and MnCl2 added to 4 mM and IPTG added to 0.3 mM. After 16 hours incubation at 15° C., cells were harvested and recombinant proteins were purified on glutathione agarose as described in Park et al. To obtain 6×His-PYL receptor fusion proteins, expression constructs previously described by Okamoto et al. 2013, (PNAS 110(29): 12132-12137) were used. ABA receptors were expressed and purified as described above.
(§4) For the values shown in Table B5, PP2C activity assays using recombinant receptors and PP2Cs were carried out as follows: purified proteins were pre-incubated in 160 μl assay buffer containing 100 mM Tris-HCl-pH7.9, 100 mM NaCl, 3 μg bovine serum albumin, 0.1% 2-mercaptoethanol, 1 mM MnCl2 with ABA or agonists (compounds of the present invention) for 30 minutes at room temperature. Reactions were started by adding 40 μL of a reaction solution containing 25 mM 4-nitrophenyl phosphate in assay buffer after which absorbance measurements were immediately collected using a 405 nm on Wallac plate reader. Reactions contained 100 nM PP2C and 200 nM PYR/PYL proteins. […] For inferring IC50 values, calculations from receptor/PP2C assays containing different concentrations (ranging from 1 μM to 4 nM) were. The obtained dose response data was fit to a log (inhibitor) versus response-(variable slope) model using non-linear regression to infer the IC50s, using Graph Pad Prism 6.0.

[2] = tested on: corn plants (variety NK OCTET); experiment: Water use (WU) of corn plants after foliar spray; type: in vivo; details: foliar spray at 500 μM, vs negative control
[3] = tested on: corn plants (variety NK OCTET); experiment: Water use (WU) of corn plants after foliar spray; type: in vivo; details: foliar spray at 500 μM, vs negative control; for Total % WU 0 to 2 DAA: cumulative
Procedure: Compounds were tested for their effect on reducing plant water use as follows. The compounds were applied by foliar spray to 12 day old corn plants (variety NK OCTET) grown in controlled environment plant growth chambers. All compounds were applied using an emulsifiable concentrate (EC) formulation that was diluted to the desired concentrations with water containing 0.4% of the adjuvant rape seed methyl ester. Plant water use during the day was assessed by repeated weighing of the pots in which the plants were grown before and after application of the compounds at the indicated times (expressed in days after application (DAA)). The water use data before application was used to correct any differences in water use arising due to non-treatment effects (e.g. due to differences in plant size). The untransformed water use values were subjected to an analysis of covariance, fitting the effect of treatment and using the baseline water use 1 day before application as a covariate. Application of the chemicals (0 DAA) takes place approximately between 8 to 9:30 a.m. WU is measured within day time (chamber light is on 6:00 to 20:00) at these timepoints: 0 DAA AM (10:30-12:50) and 0 DAA PM (14:00-19:50), 1 DAA AM (7:30-12:50) and 1 DAA PM (14:00-19:50) and 2 DAA AM (7:30-12:50). The cumulative total WU (0-2 DAA) is calculated by summing the WU data mentioned above.

PYR1-HAB1 = PYR1-HAB1 (Arabidopsis thaliana (Mouse-ear cress), UniProt O49686); experiment: PP2C activity assay, PYR1-HAB1; type: biochemical; details: 100 nM PP2C, 200 nM PYR/PYL protein, 4-nitrophenyl phosphate substrate; read-out: IC50 of inhibition of PYR1-HAB1
PYR1-HAB1, sequence (O49686 whole entry, looked up): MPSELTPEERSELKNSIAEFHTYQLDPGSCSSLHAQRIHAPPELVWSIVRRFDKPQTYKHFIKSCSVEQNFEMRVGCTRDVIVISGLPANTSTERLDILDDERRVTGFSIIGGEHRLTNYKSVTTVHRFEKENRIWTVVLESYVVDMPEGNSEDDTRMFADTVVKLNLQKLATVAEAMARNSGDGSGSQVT
PYR1-HAB1, sequence (Q9CAJ0 whole entry partner, looked up): as the sequence (Q9CAJ0 whole entry partner, looked up) above
Text: as §1, §2, §3, §4

[4] = repeated experiment (Table B2), rate not given
[5] = 0 h, application rate 100 μM, read-out: % WU 0 DAA AM
[6] = 0 h, application rate 100 μM, read-out: % WU 0 DAA PM
[7] = 24 h, application rate 100 μM, read-out: % WU 1 DAA AM
[8] = 24 h, application rate 100 μM, read-out: % WU 1 DAA PM
[9] = 48 h, application rate 100 μM, read-out: % WU 2 DAA AM

Compound	% WU 2 DAA PM [1, 4] [%]	Total % WU 0 to 2 DAA [1, 4] [%]	IC50 (PYL2-HAB1) [nM]	% WU 2 DAA PM [2] [%]	Total % WU 0 to 2 DAA [3] [%]	% WU 0 DAA AM [3] [%]	% WU 0 DAA PM [3] [%]	% WU 1 DAA AM [3] [%]	% WU 1 DAA PM [3] [%]	% WU 2 DAA AM [3] [%]	IC50 (PYR1-HAB1) [nM]	other results
CCN1C(=O)CCc2cc(NS(=O)(=O)Cc3ccc(C4CC4)cc3)cc(F)c21 [Compound 1.213, 1-(4-cyclopropylphenyl)-N-(1-ethyl-8-fluoro-2-oxo-3,4-dihydroquinolin-6-yl)methanesulfonamide]	−38.7	−45.8	244	−7	−11.4	−18.2	−15.5	−13.4	−11.2	−7.9	21	–
CCCN1C(=O)CCc2cc(NS(=O)(=O)Cc3ccc(C4CCC4)cc3)ccc21 [Compound 5.004, 1-(4-cyclobutylphenyl)-N-(2-oxo-1-propyl-3,4-dihydroquinolin-6-yl)methanesulfonamide]	3.9	−3	–	−2.3	−4.9	−8.9	−8.8	−5.6	−5.9	−1.7	–	–
CCN1C(=O)CC(C)c2cc(NS(=O)(=O)Cc3ccc(C4CC4)cc3)ccc21 (stereo not drawn) [Compound 1.178, 1-(4-cyclopropylphenyl)-N-(1-ethyl-4-methyl-2-oxo-3,4-dihydroquinolin-6-yl)methanesulfonamide]	−36.5	−45.4	–	−5.8	−9.7	−18.5	−13	−11.2	−9.2	−6.5	–	–
CCCN1C(=O)CCc2cc(NS(=O)(=O)Cc3ccc(C4CC4)cc3)ccc21 [drawing 27]	–	–	–	–	–	–	–	–	–	–	–	change in vivo at 500 µM ([1]; 0 h, application rate 500 μM, read-out: % WU 0 DAA AM): -8.8%; change in vivo at 500 µM ([1]; 0 h, application rate 500 μM, read-out: % WU 0 DAA PM): -10.7%; change in vivo at 500 µM ([1]; 24 h, application rate 500 μM, read-out: % WU 1 DAA AM): -9.4%; change in vivo at 500 µM ([1]; 24 h, application rate 500 μM, read-out: % WU 1 DAA PM): -6.4%; change in vivo at 500 µM ([1]; 48 h, application rate 500 μM, read-out: % WU 2 DAA AM): -6.1%; Total 0 to 2 DAA ([1]; application rate 500 μM): −8.9%
CCCN1C(=O)CCc2cc(NS(=O)(=O)Cc3ccc(C4CC4)cc3)ccc21 [drawing 26]	–	–	–	–	–	–	–	–	–	–	–	change in vivo at 100 µM [1, 5]: -0.8%; change in vivo at 100 µM [1, 6]: -3.8%; change in vivo at 100 µM [1, 7]: -3%; change in vivo at 100 µM [1, 8]: -2.8%; change in vivo at 100 µM [1, 9]: -5.2%; Total 0 to 2 DAA ([1]; application rate 100 μM): −3.8%
CCN1C(=O)CC(C)c2cc(NS(=O)(=O)Cc3ccc(C4CC4)cc3)cc(F)c21 (stereo not drawn) [Compound 1.220, 1-(4-cyclopropylphenyl)-N-(1-ethyl-8-fluoro-4-methyl-2-oxo-3,4-dihydroquinolin-6-yl)methanesulfonamide]	−44.6	−50.5	16	−9	−17.8	−32.6	−35.1	−18.2	−14.1	−8.7	71	–
CCCN1C(=O)CCc2cc(NS(=O)(=O)Cc3ccc(C4CCCC4)cc3)ccc21 [Compound 9.004, 1-(4-cyclopentylphenyl)-N-(2-oxo-1-propyl-3,4-dihydroquinolin-6-yl)methanesulfonamide]	0.5	−1.4	> 1000	–	–	–	–	–	–	–	97	–
CCCN1C(=O)CCc2cc(NS(=O)(=O)Cc3ccc(C)cc3)ccc21 [drawing 25, reference compound]	–	–	–	–	–	–	–	–	–	–	–	change in vivo at 100 µM [1, 5]: -1.3%; change in vivo at 100 µM [1, 6]: -0.7%; change in vivo at 100 µM [1, 7]: -2.2%; change in vivo at 100 µM [1, 8]: -0.2%; change in vivo at 100 µM [1, 9]: -3.4%; Total 0 to 2 DAA ([1]; application rate 100 μM): −2.0%
CCCN1C(=O)CCc2cc(NS(=O)(=O)Cc3ccc(C4CC4)cc3)cc(Cl)c21 [Compound 1.025, N-(8-chloro-2-oxo-1-propyl-3,4-dihydroquinolin-6-yl)-1-(4-cyclopropylphenyl)methanesulfonamide]	−13.6	−22.1	114	–	–	–	–	–	–	–	83	–
CCCN1C(=O)CCc2cc(NS(=O)(=O)Cc3ccc(C4CC4)cc3)cc(F)c21 [Compound 1.214, 1-(4-cyclopropylphenyl)-N-(8-fluoro-2-oxo-1-propyl-3,4-dihydroquinolin-6-yl)methanesulfonamide]	–	–	130	–	–	–	–	–	–	–	28	–
CCCN1C(=O)CCc2cc(NS(=O)(=O)Cc3ccc(C)cc3)ccc21 [Quinabactin, quinabactin, reference compound]	−11	−16	262	–	–	–	–	–	–	–	104	% WU 0 DAA AM [1, 4]: −22%; % WU 0 DAA PM [1, 4]: −23%; % WU 1 DAA AM [1, 4]: −17%; % WU 1 DAA PM [1, 4]: −15%; % WU 2 DAA AM [1, 4]: −12%
CCCN1C(=O)CC(C)c2cc(NS(=O)(=O)Cc3ccc(C4CC4)cc3)ccc21 (stereo not drawn) [Compound 1.179]	–	–	64	–	–	–	–	–	–	–	82	–
CCCN1C(=O)CCc2cc(NS(=O)(=O)Cc3ccc(C4CC(=O)C4(C)C)cc3)ccc21 (stereo not drawn) [Compound 8.004, 1-[4-(2,2-dimethyl-3-oxo-cyclobutyl)phenyl]-N-(2-oxo-1-propyl-3,4-dihydroquinolin-6-yl)methanesulfonamide]	1	−0.7	–	–	–	–	–	–	–	–	–	–

— patent publication US10167261B2, “2-oxo-3,4-dihydroquinolin-6-yl sulphonamide CPDS and their use as plant growth regulators” (THE REGENTS OF THE UNIVERSITY OF CALIFORNIA, priority 2014, dated 2019)
